Data on 4 compounds can be found in patent US4131686A, “Novel benzylalcohol derivatives and processes for preparing the same” (Tanabe Seiyaku Co., Ltd., priority 1975, dated 1978).

By LD50 is commonly meant the dose expected to kill half of the subjects tested. Higher therefore signals a less toxic substance.

The test system of one series is blood-pressure. The note with it: known cardiotonic compounds, U.S. Pat. 3869474 and Offenlegungsschrift 2420427; cited from earlier work.
In another series the test system is adrenergic β1 -receptor. The note with it: known compounds, U.S. Pat. 3869474 and Offenlegungsschrift 2420427; cited from earlier work.
The next series deals with blood sugar. Kind of series: blood sugar-lowering test: oral administration to mice prior to subcutaneous injection of glucose (one g/kg). In kind it is in vivo. The note with it: 100 mg/kg required; same conditions (mice, oral, s.c. glucose one g/kg).
Series [1] is described as follows: acute toxicity: 50% lethal dose (LD50) by oral administration to mice. The note with it: mouse, in vivo.

Regarding `COc1ccc(CCNCC(O)c2ccc(O)c(O)c2)cc1OC` (stereo not drawn) [α-(3,4-dimethoxyphenethylaminomethyl)-3,4-dihydroxybenzylalcohol], the influence upon blood-pressure entry in the series on blood-pressure is reported as “no substantial influence”. For the same compound, the “activation of adrenergic β1-receptor” value in the series with adrenergic β1 -receptor is listed as “selective activation”. Turning to `COc1cc(CCNCC(O)c2ccc(O)c(O)c2)cc(OC)c1OC` (stereo not drawn) [α-(3,4,5-trimethoxyphenethylaminomethyl)-3,4-dihydroxybenzylalcohol], in the series on blood-pressure, the influence upon blood-pressure result is listed as “no substantial influence”. Besides, the “activation of adrenergic β1-receptor” value in the series with adrenergic β1 -receptor is listed as “selective activation”. For the compound `N=C(N)NC(=N)NCCc1ccccc1` [Phenformin, 1-phenethylbiguanide], the “decrease in the blood sugar” value in the series on blood sugar is on record as roughly 30%. Regarding `COc1ccc(CCNCC(O)c2ccccc2OC)cc1OC` (racemic) [dl-α-(3,4-dimethoxyphenethylaminomethyl)-2-methoxybenzylalcohol], the LD50 in series [1] is roughly 580 mg/kg.
